Values after ≈ are worked out from the molar mass of the structure shown.
Assays:
[1] = tested on: Enterococcus faecalis 416 strain; test: Propensity to resistance development (resistant colonies per plate); type: cell-based; settings: E. faecalis 416 at 10^8 CFU, compound concentration 5 mcg/ml, 48 hours at 35° C.
Method: Enterococcus faecalis 416 strain at 10^8 CFU density level was spirally plated on Mueller Hinton agar containing 5 mcg/ml each of linezolid and representative compound of the invention. Plates were incubated at 35° C. for 48 hours and number of resistant colonies developed in presence of respective compounds were counted by automated counter.

[2] = tested on: MRSA 032; test: MIC determination, linezolid sensitive MRSA 032 (MRSA-32); type: cell-based; settings: Staphylococcus aureus, read-out: MIC MRSA 32
Method: (§1) Infecting doses of organisms given by intraperitoneal route in 5% hog gastric mucin were 10^3-10^4 CFU (colony forming units)/animal for SPN 6303 and 10^8 CFU/animal for MRSA-32. In case of MRSA-32, Linezolid was administered by oral route, 1 and 4 h post infection, BID (twice a day) for 1 day and for SPN 6303 BID for 2 days. […] MICs of Methicillin Resistant Staphylococcus aureus-32 Linezolid resistant (MRSA-32 LNZR), S. pneumoniae 744 Linezolid resistant (SPN 744 LNZR) and parent Linezolid sensitive strains MRSA-32 and SPN 6303 were determined for Linezolid by NCCLS agar dilution method.
(§2) Cultures were further diluted 1:10 in Mueller Hinton broth. Using Denley's mutipoint inoculator, 10^4 cells were deposited on Mueller Hinton agar (Difco) containing range of 2 fold dilutions of test compounds. […] MIC is defined as minimum drug concentration that inhibits test organisms. For determining MIC of test compounds against Streptococcus pneumoniae, Mueller Hinton agar containing 5% sheep blood was employed.

[3] = tested on: S. aureus MRSA-32 LNZR; test: MIC determination, linezolid resistant S. aureus MRSA-32 LNZR; type: cell-based; settings: Staphylococcus aureus, 24 h, read-out: MIC MRSA 32 LNZR
Method: as §1, §2

[4] = tested on: SPN 744 LNZR; test: MIC determination, linezolid resistant SPN 744 LNZR; type: cell-based; settings: Streptococcus pneumoniae, read-out: MIC SPN744 LNZR
Method: as §1, §2

[5] = tested on: E. faecium 367 LNZR; test: MIC determination, linezolid resistant E. faecium 367 LNZR; type: cell-based; settings: Enterococcus faecium, read-out: MIC E. faecium 367 LNZR
Method: E. faecium ATCC 19434 strain at a cell density of 10^6/ml was inoculated in Mueller Hinton broth medium containing Linezolid at a concentration of 5 and 7.5 mcg/ml. The stationary culture was incubated at 37° C. and inspected at every 24 hours to assess the formation of turbidity due to the onset of bacterial growth. […] A 50 microliter sample of turbid flask was plated on Mueller Hinton agar medium incorporated with linezolid at 7.5 mcg/ml. The agar plates were incubated for 48 hours at 37° C. for the formation of discrete colonies of linezolid-resistant strain of E. faecium (E. faecium 367 LNZR). MICs of resistant mutant E. faecium 367 LNZR and parent strain E. faecium ATCC 19434 were determined for linezolid by NCCLS method.
as §2

[6] = tested on: SPN 49619; test: MIC determination, linezolid sensitive SPN 49619; type: cell-based; settings: Streptococcus pneumoniae; linezolid sensitive strain, Table 3

SMILES	No. of colonies/plate [1]	MIC [2] [mg/L]	MIC [3] [mg/L]	MIC [4] [mg/L]	MIC [5] [mg/L]	MIC [6] [mg/L]	melting point [°C]
CC(=O)NC[C@H]1CN(c2ccc(N3CCC(=CC#N)C(F)C3)c(F)c2)C(=O)O1 (mixture of isomers) [Example 56, (S)-N-{3-[4-(4-cyanomethylidene-3-fluoropiperidin-1-yl)-3-fluorophenyl]-2-oxo-oxazolidin-5-ylmethyl}-acetamide]	0	–	–	–	–	–	–
CC(=O)NC[C@H]1CN(c2ccc(N3CC/C(=C\C#N)C(F)C3)c(F)c2)C(=O)O1 (stereo partly drawn) [56 (E), E-(S)-N-{3-[4-(4-cyanomethylidene-3-fluoropiperidin-1-yl)-3-fluorophenyl]-2-oxo-oxazolidin-5-ylmethyl}-acetamide]	–	0.8 (≈ 2.05 µM)	12.5 (≈ 32 µM)	6.25 (≈ 16 µM)	6.25 (≈ 16 µM)	0.8 (≈ 2.05 µM)	–
CC(=O)NC[C@H]1CN(c2ccc(N3CC/C(=C/C#N)C(F)C3)c(F)c2)C(=O)O1 (stereo partly drawn) [56 (Z), Z-(S)-N-{3-[4-(4-cyanomethylidene-3-fluoropiperidin-1-yl)-3-fluorophenyl]-2-oxo-oxazolidin-5-ylmethyl}-acetamide]	–	0.8 (≈ 2.05 µM)	25 (≈ 64 µM)	12.5 (≈ 32 µM)	6.25 (≈ 16 µM)	0.8 (≈ 2.05 µM)	–
N#CC=C1CCN(c2ccc(N3C[C@H](CNC(=O)CCl)OC3=O)cc2F)CC1 [Example 31, (S)-N-{3-[4-(4-cyanomethylidene-piperidin-1-yl)-3-fluorophenyl]-2-oxo-oxazolidin-5-ylmethyl}-chloroacetamide]	0	0.8 (≈ 1.97 µM)	12.5 (≈ 30.7 µM)	12.5 (≈ 30.7 µM)	6.25 (≈ 15.4 µM)	0.8 (≈ 1.97 µM)	–
CC(=S)NC[C@H]1CN(c2ccc(N3CCC(=CC#N)CC3)c(F)c2)C(=O)O1 [Example 45, (S)-N-{3-[4-(4-cyanomethylidene-piperidin-1-yl)-3-fluorophenyl]-2-oxo-oxazolidin-5-ylmethyl}-thioacetamide]	–	0.2 (≈ 0.515 µM)	3.12 (≈ 8.03 µM)	3.12 (≈ 8.03 µM)	–	0.2 (≈ 0.515 µM)	–
N#CC=C1CCN(c2ccc(N3C[C@H](CNC(=S)CO)OC3=O)cc2F)CC1 [Example 47, (S)-N-{3-[4-(4-cyanomethylidene-piperidin-1-yl)-3-fluorophenyl]-2-oxo-oxazolidin-5-ylmethyl}-2-hydroxythioacetamide]	0	0.8 (≈ 1.98 µM)	–	–	–	0.4 (≈ 0.989 µM)	–
N#C/C=C1\CCN(c2ccc(N3C[C@H](CNC(=O)C(F)F)OC3=O)cc2F)CC1F (stereo partly drawn) [Example 57, (S)-N-{3-[4-(4-cyanomethylidene-3-fluoropiperidin-1-yl)-3-fluorophenyl]-2-oxo-oxazolidin-5-ylmethyl}-difluoroacetamide]	–	–	12.5 (≈ 29.3 µM)	6.25 (≈ 14.7 µM)	6.25 (≈ 14.7 µM)	–	–
CC(=S)NC[C@H]1CN(c2ccc(N3CC/C(=C\C#N)C(F)C3)c(F)c2)C(=O)O1 (stereo partly drawn) [Example 60, (S)-N-{3-[4-(4-cyanomethylidene-3-fluoropiperidin-1-yl)-3-fluorophenyl]-2-oxo-oxazolidin-5-ylmethyl}-thioacetamide]	–	0.25 (≈ 0.615 µM)	6.25 (≈ 15.4 µM)	3.12 (≈ 7.68 µM)	1.56 (≈ 3.84 µM)	0.1 (≈ 0.246 µM)	–
COC(=S)NC[C@H]1CN(c2ccc(N3CC/C(=C\C#N)C(C)C3)c(F)c2)C(=O)O1 (stereo partly drawn) [Example 67, (S)-N-{3-[4-(4-cyanomethylidene-3-methylpiperidin-1-yl)-3-fluorophenyl]-2-oxo-oxazolidin-5-ylmethyl}-methylthiocarbamate]	–	0.8 (≈ 1.91 µM)	12.5 (≈ 29.9 µM)	6.25 (≈ 14.9 µM)	3.12 (≈ 7.46 µM)	0.4 (≈ 0.956 µM)	–
CC1CN(c2ccc(N3C[C@H](CNC(N)=S)OC3=O)cc2F)CC/C1=C\C#N (stereo partly drawn) [Example 68, (S)-N-{3-[4-(4-cyanomethylidene-3-methylpiperidin-1-yl)-3-fluorophenyl]-2-oxo-oxazolidin-5-ylmethyl}-thiocarbamide]	–	0.4 (≈ 0.991 µM)	6.25 (≈ 15.5 µM)	3.12 (≈ 7.73 µM)	3.12 (≈ 7.73 µM)	0.4 (≈ 0.991 µM)	–
CC(=O)NC[C@H]1CN(c2ccc(N3CCC(=C(C)C#N)CC3)c(F)c2)C(=O)O1 [Example 74, (S)-N-{3-[4-(4-(1-cyanoethylidene)-piperidin-1-yl)-3-fluorophenyl]-2-oxo-oxazolidin-5-ylmethyl}-acetamide]	0	–	25 (≈ 64.7 µM)	6.25 (≈ 16.2 µM)	6.25 (≈ 16.2 µM)	–	–
CC(C#N)=C1CCN(c2ccc(N3C[C@H](CNC(=O)C(F)F)OC3=O)cc2F)CC1 [Example 77, (S)-N-{3-[4-(4-(1-cyanoethylidene)-piperidin-1-yl)-3-fluorophenyl]-2-oxo-oxazolidin-5-ylmethyl}-difluoroacetamide]	–	–	12.5 (≈ 29.6 µM)	6.25 (≈ 14.8 µM)	6.25 (≈ 14.8 µM)	–	–
CC(=S)NC[C@H]1CN(c2ccc(N3CCC(=C(C)C#N)CC3)c(F)c2)C(=O)O1 [Example 84, (S)-N-{3-[4-(4-(1-cyanoethylidene)-piperidin-1-yl)-3-fluorophenyl]-2-oxo-oxazolidin-5-ylmethyl}-thioacetamide]	–	0.4 (≈ 0.994 µM)	1.56 (≈ 3.88 µM)	1.56 (≈ 3.88 µM)	1.56 (≈ 3.88 µM)	0.2 (≈ 0.497 µM)	–
CCC(C#N)=C1CCN(c2ccc(N3C[C@H](CNC(C)=O)OC3=O)cc2F)CC1 [Example 89, (S)-N-{3-[4-(4-(1-cyanopropylidene)-piperidin-1-yl)-3-fluorophenyl]-2-oxo-oxazolidin-5-ylmethyl}-acetamide]	–	–	25 (≈ 62.4 µM)	12.5 (≈ 31.2 µM)	6.25 (≈ 15.6 µM)	–	–
CCC(C#N)=C1CCN(c2ccc(N3C[C@H](CNC(=O)C(Cl)Cl)OC3=O)cc2F)CC1 [Example 90, (S)-N-{3-[4-(4-(1-cyanopropylidene)-piperidin-1-yl)-3-fluorophenyl]-2-oxo-oxazolidin-5-ylmethyl}-dichloroacetamide]	0	0.8 (≈ 1.7 µM)	12.5 (≈ 26.6 µM)	6.25 (≈ 13.3 µM)	3.12 (≈ 6.65 µM)	0.4 (≈ 0.852 µM)	–
CCC(C#N)=C1CCN(c2ccc(N3C[C@H](CNC(C)=S)OC3=O)cc2F)CC1 [Example 93, (S)-N-{3-[4-(4-(1-cyanopropylidene)-piperidin-1-yl)-3-fluorophenyl]-2-oxo-oxazolidin-5-ylmethyl}-thioacetamide]	–	0.4 (≈ 0.96 µM)	6.25 (≈ 15 µM)	3.12 (≈ 7.49 µM)	1.56 (≈ 3.75 µM)	0.2 (≈ 0.48 µM)	–
CSC(C#N)=C1CCN(c2ccc(N3C[C@H](CNC(C)=O)OC3=O)cc2F)CC1 [Example 115, (S)-N-{3-[4-(4-(1-cyano-1-methylmercapto-methylidene)-piperidin-1-yl)-3-fluorophenyl]-2-oxo-oxazolidin-5-ylmethyl}-acetamide]	–	0.8 (≈ 1.91 µM)	12.5 (≈ 29.9 µM)	6.25 (≈ 14.9 µM)	3.12 (≈ 7.46 µM)	0.8 (≈ 1.91 µM)	–
CC(=O)NC[C@H]1CN(c2ccc(N3CCC(=C(Br)C#N)CC3)c(F)c2)C(=O)O1 [Example 117, (S)-N-{3-[4-(4-(1-cyano-1-bromo-methylidene)-piperidin-1-yl)-3-fluorophenyl]-2-oxo-oxazolidin-5-ylmethyl}-acetamide]	–	0.8 (≈ 1.77 µM)	12.5 (≈ 27.7 µM)	6.25 (≈ 13.8 µM)	3.12 (≈ 6.91 µM)	0.4 (≈ 0.886 µM)	–
CC(=S)NC[C@H]1CN(c2ccc(N3CCC(=C(C#N)C(=S)N4CCOCC4)CC3)c(F)c2)C(=O)O1 [Example 121, (S)-N-{3-[4-(4-(1-cyano-1-(morpholin-1-yl-thiocarbonyl)-methylidene)-piperidin-1-yl)-3-fluorophenyl]-2-oxo-oxazolidin-5-ylmethyl}-thioacetamide]	–	0.4 (≈ 0.773 µM)	6.25 (≈ 12.1 µM)	1.56 (≈ 3.01 µM)	–	0.2 (≈ 0.386 µM)	–
CC(=O)NC[C@H]1CN(c2ccc(N3CC=C(CC#N)CC3)c(F)c2)C(=O)O1 [Example 159, (S)-N-{3-[4-(4-cyanomethyl-3,4-dehydropiperidin-1-yl)-3-fluorophenyl]-2-oxo-oxazolidin-5-ylmethyl}-acetamide]	1.5 × 10^1	–	–	–	–	–	132
